{"source": "patent US6071710A", "about": "“Antikinin compounds and uses thereof” (MUSC Foundation for Research Development, priority 1997, dated 2000)", "key": {"kinin B2 receptors": {"target": "T1, kinin B2 receptors (Rattus norvegicus, UniProt P25023)", "T1 construct": "endogenous in cells; host or cells: primary rat aortic vascular smooth muscle cells (male Sprague-Dawley), passage 2-4", "T1 sequence (P25023 1-396)": "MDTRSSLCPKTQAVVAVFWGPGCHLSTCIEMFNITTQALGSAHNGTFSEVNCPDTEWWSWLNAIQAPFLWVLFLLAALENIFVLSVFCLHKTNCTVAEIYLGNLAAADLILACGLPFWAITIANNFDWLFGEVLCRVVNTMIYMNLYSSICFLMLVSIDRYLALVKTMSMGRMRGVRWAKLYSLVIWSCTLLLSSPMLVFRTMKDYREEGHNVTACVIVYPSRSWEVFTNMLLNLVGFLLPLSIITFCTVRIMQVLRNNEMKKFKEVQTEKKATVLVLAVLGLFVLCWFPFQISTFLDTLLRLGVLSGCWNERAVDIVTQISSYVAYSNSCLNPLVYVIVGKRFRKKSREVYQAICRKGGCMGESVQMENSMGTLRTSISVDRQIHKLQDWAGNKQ", "assay": "[3H]bradykinin binding assay in VSMC", "details": "rat aortic smooth muscle cells", "experimental": "VSMC grown in 6-well plates were washed with and allowed to equilibrate with 1 ml of binding buffer (25 mM TES, 1 mM phenanthroline, 15 μM captopril, 0.1% BSA, pH 7.0). Saturation binding experiments were performed by incubating cells with [^-3 H] bradykinin (60,000 cpm/well) and varying the concentration of unlabeled bradykinin (5×10^-11 -1×10^-6 M) in binding buffer for 2 h at 4° C. Cells were washed 3 times with 2 ml of ice-cold binding buffer and solubilized for 10 min in 1% SDS, 0.1 M NaOH, 0.1 M Na2 CO3 solution and counted for radioactivity. Data were analyzed using the LIGAND program to determine the affinity constants and the receptor number."}, "[1]": {"tested_on": "spontaneously hypertensive rats", "assay": "Mean systemic arterial blood pressure after brain injection of BK fragments", "type": "in vivo, rat", "details": "hypertensive anesthetized rats, preliminary for BK1-7, BK2-7", "experimental": "Experiments were performed on male spontaneously hypertensive rats weighing 250-350 g. Anesthesia and surgical procedures are described (15-17). Following the surgical procedures, animals were allowed to stabilize for 30 minutes. Injections were then made unilaterally into the rostral ventral lateral medulla oblongata. In any given experiment, not more than four doses of the BK fragments were given. Successive injections were alternated between sides after an intervening period of 20 minutes. Mean arterial pressure was measured from a femoral arterial line with a transducer (Statham Laboratories, Inc. Hato Rey, Puerto Rico) and recorded using a polygraph (Grass Instrument Co., Quincy, Mass.). Values shown are the mean changes ± sem."}, "[2]": {"details": "published work (11); cited from earlier work"}, "[3]": {"details": "cited from earlier work"}, "[4]": {"tested_on": "endotoxin (LPS)-treated anesthetized rats", "assay": "Endotoxin (LPS) shock in anesthetized rats", "type": "in vivo, rat", "details": "1 μg/kg IV followed by 143 ng/kg/hr, one hour prior to LPS (12 mg/kg IV); vs vehicle/LPS", "experimental": "Male Sprague-Dawley rats (220-480 g) were anesthetized with inactin (120 mg/kg, IP). The trachea was cannulated and the animal was allowed to breath 100% O2. Polyvinyl cannulas (Norton Plastics, Akron, Ohio) were inserted into the jugular vein and the femoral artery for the purposes of infusion of saline and agents and for monitoring of blood pressure, respectively, as described for FIGS. 2 and 3. Heart rate was monitored by tachograph and body temperature was maintained at 37° C. After a 2 hour period of equilibration with saline infusion (0.25 ml/hr), peptides (1 μg/kg followed by 143 ng/kg/hr) or saline were administered, followed one hour later by LPS (12 mg/kg). Time of death was taken as time after administration of LPS when there was no longer a detectable ECG. Values shown are the mean ± sem from the indicated number of studies and were compared using either t-test (FIG. 12A) or ANOVA with Fisher's post-hoc t-test (FIG. 12B)."}}, "note": "Entries after “also recorded” stand apart in the source; their conditions may differ. Where no end group is shown, it is not given here.", "data": [{"molecule": "NC(N)=NCCC[C@@H](N)C(=O)N[C@@H](CCCN=C(N)N)C(=O)N1CCC[C@H]1C(=O)N1C[C@H](O)C[C@H]1C(=O)NCC(=O)N[C@@H](Cc1cccs1)C(=O)N[C@@H](CO)C(=O)N1Cc2ccccc2C[C@@H]1C(=O)N1[C@H](C(=O)N[C@@H](CCCN=C(N)N)C(=O)O)C[C@@H]2CCCC[C@@H]21", "note": "[HOE140]", "values": [{"measurement": "displacement of specific binding of bradykinin to kinin B2 receptors", "setting": "kinin B2 receptors", "value": "specifically displaced"}]}, {"molecule": "BK2-7: bradykinin fragment PPGFSP (Bradykinin; UniProt P01042 382-387, looked up, fragment)", "values": [{"measurement": "systemic mean arterial pressure (MAP) response", "setting": "[1]", "value": "affect systemic blood pressure"}]}, {"molecule": "RPPGF [RPPGF, Arg-Pro-Pro-Gly-Phe]", "values": [{"measurement": "stability in human plasma", "setting": "[2]", "value": "highly stable in human plasma"}]}, {"molecule": "RPPGFSPFR [bradykinin]", "values": [{"measurement": "plasma half-life", "setting": "[3]", "value": "~ 15 secs."}, {"measurement": "survival time", "setting": "[4]", "value": "did not prolong life; also recorded: does not provide protection"}]}, {"molecule": "des-arg9-bradykinin (RPPGFSPF; Bradykinin; UniProt P01042 381-388, looked up, fragment)", "values": [{"measurement": "displacement of specific binding of bradykinin to kinin B2 receptors", "setting": "kinin B2 receptors", "value": "not displaced"}]}]}
